{
  "source": "paper PMC5071873",
  "about": "“The Effects of Puerarin on Rat Ventricular Myocytes and the Potential Mechanism” (Scientific Reports, 2016)",
  "format_in_all_cases": "cell-based",
  "key": {"[1]": {"molecular_target": "T1, IKs channels (KCNQ and KCNE) (Homo sapiens, UniProt P51787)", "T1 construct": "expressed in transfected cells; host or cells: HEK293", "assay": "Whole-cell patch clamp of IKs currents (Kv7.1 + KCNE1, voltage steps) in transfected HEK293 cells", "conditions": "for IC50: HEK293, non-linear Hill fit, n = 6 each point; for IKs-tail current density / IKs current density: at 40 mV; for IKs-tail current density: control 23.5 ± 1.2; for IKs current density: control 33.8 ± 3.2", "protocol": "(§1) The Tyrode’s solution contained (mM): 126 NaCl, 5.4 KCl, 1.8 CaCl2, 1 MgCl2, 0.33 NaH2PO4, 10 HEPES and 10 glucose, pH 7.4 (adjusted with NaOH). The Ca^2+-free Tyrode’s solution was prepared by removing CaCl2 from the Tyrode’s solution. The Kreb’s solution used for cell storage contained (mM): 70 glutamic acid, 30 KCl, 15 taurine, 0.5 MgCl2, 10 KH2PO4, 0.5 EGTA, 10 HEPES, 10 glucose, and 1% albumin, pH 7.4 (adjusted with KOH). The enzyme solution used for the rat cardiomyocyte isolation contained 0.08 g/L collagenase (type II) and 1.0 g/L BSA in Kreb’s solution. For action potential recording on cardiomyocyte, the pipette solution contained (mM): 100 potassium aspartate, 30 KCl, 1 MgCl2, 5 Mg-ATP, 5 EGTA, 5 HEPES, pH 7.3 (adjusted with KOH); the Tyrode’s solution was used as the standard bath solution. For whole-cell recording of IKs on myocytes, the pipette solution contained (mM): 125 potassium aspartate, 20 KCl, 1 MgCl2, 5 Mg-ATP, 10 EGTA, 5 HEPES, pH 7.3 (adjusted with KOH); the bath solution contained (mM): 132 NaCl, 4 KCl, 1.8 CaCl2, 1.2 MgCl2, 10 HEPES, 5 glucose, pH 7.4 (adjusted with NaOH). 3 μM nifedipine and 5 μM E-4031 were used to block the calcium current and IKr, respectively. For whole-cell recording on HEK-293 cells, the pipette solution contained (mM): 140 KCl, 2 MgCl2, 10 HEPES, 0.1 EGTA, 4 K2-ATP, pH 7.3 (adjusted with KOH); the bath solution contained (mM): 120 NaCl, 5 KCl, 1.5 CaCl2, 1 MgCl2, 10 HEPES, 10 glucose, pH 7.4 (adjusted with NaOH). For single-channel recording, the pipette solution (extracellular) contained (mM): 145 KCl, 10 HEPES, 10 glucose, pH 7.4 (adjusted with KOH); the bath solution (intracellular) contained (mM): 145 KCl, 1.2 MgCl2, 10 HEPES, 0.1 EGTA, pH 7.38 (adjusted with KOH).\n(§2) Cell suspensions were transferred into a chamber on the stage of a Nikon Eclipse Ti inverted microscope (Tokyo, Japan). The whole-cell recordings were performed using isolated single ventricular myocytes. Patch electrodes were pulled from a horizontal microelectrode puller (P-1000, Sutter Instrument Co, USA) and fire polished to final tip resistance of 4.0–8.0 MΩ when filled with internal solutions. Signals were amplified with an Axopatch 200B amplifier (Axon Instruments, USA) and filtered at 1 kHz. The pCLAMP 9.0 software was used to generate current and voltage clamp protocols, acquire data, and analyse the current traces. The whole-cell series resistance was compensated to more than 80%. All of the experiments were performed at room temperature (22 ± 1 °C). The whole-cell IK1 was elicited by a ramp voltage protocol from −140 to + 40 mV in 1 s, or at a 0 mV holding potential to test potentials from −140 to + 40 mV in 10 mV increments. The IK1 was calculated as the difference between the peak inward current and the holding current level. The whole-cell Kv7.1/IKs were elicited from a −30 mV holding potential to test potentials from −80 to + 40 mV in 10 mV increments.\n(§3) Human Kir2.1 cDNA, Kir2.3 cDNA, Kv7.1 cDNA and KCNE1 cDNA, was cloned in Human Embryonic Kidney 293 cells, respectively. In some cases, Kv7.1 cDNA and KCNE1 cDNA were simultaneously cloned in Human Embryonic Kidney 293 cells."}, "Kv7.1 [2]": {"molecular_target": "T2, Kv7.1 (Homo sapiens, UniProt P51787)", "T2 construct": "expressed in transfected cells; host or cells: HEK293", "assay": "Whole-cell patch clamp of Kv7.1 currents (voltage steps) in transfected HEK293 cells", "conditions": "for IC50: HEK293, non-linear Hill fit, n = 6 each point; for Kv7.1-tail current density / Kv7.1 current density: at 40 mV; for Kv7.1-tail current density: control 10.4 ± 0.6; for Kv7.1 current density: control 24.3 ± 1.1", "protocol": "as §1, §2, §3"}, "IKs channel": {"molecular_target": "T3, IKs channel (Homo sapiens, UniProt P51787)", "T3 construct": "expressed in transfected cells; host or cells: HEK293", "assay": "Single-channel inside-out patch clamp recording of IKs", "conditions": "puerarin 100 μM, inside-out, intracellular side", "protocol": "as §1, with “3 μM nifedipine and 5 μM E-4031 were used to block the calcium current and IKr, respectively. For whole-cell recording on HEK-293 cells, the pipette solution contained (mM): 140 KCl, 2 MgCl2, 10 HEPES, 0.1 EGTA, 4 K2-ATP, pH 7.3 (adjusted with KOH); the bath solution contained (mM): 120 NaCl, 5 KCl, 1.5 CaCl2, 1 MgCl2, 10 HEPES, 10 glucose, pH 7.4 (adjusted with NaOH). For single-channel recording, the pipette solution (extracellular) contained (mM): 145 KCl, 10 HEPES, 10 glucose, pH 7.4 (adjusted with KOH); the bath solution (intracellular) contained (mM): 145 KCl, 1.2 MgCl2, 10 HEPES, 0.1 EGTA, pH 7.38 (adjusted with KOH).” left out\n(§4) Single-channel activity was recorded at a series of holding levels ranging from 10 mV of 50 mV. […] Single-channel events were listed and analysed by pclampfit 9.0 (single-channel search-in-analyse function). […]"}, "Kv7.1 [3]": {"molecular_target": "T2, Kv7.1", "assay": "Single-channel inside-out patch clamp recording of Kv7.1", "conditions": "puerarin 100 μM, inside-out, intracellular side", "protocol": "as §1, with “3 μM nifedipine and 5 μM E-4031 were used to block the calcium current and IKr, respectively. For whole-cell recording on HEK-293 cells, the pipette solution contained (mM): 140 KCl, 2 MgCl2, 10 HEPES, 0.1 EGTA, 4 K2-ATP, pH 7.3 (adjusted with KOH); the bath solution contained (mM): 120 NaCl, 5 KCl, 1.5 CaCl2, 1 MgCl2, 10 HEPES, 10 glucose, pH 7.4 (adjusted with NaOH). For single-channel recording, the pipette solution (extracellular) contained (mM): 145 KCl, 10 HEPES, 10 glucose, pH 7.4 (adjusted with KOH); the bath solution (intracellular) contained (mM): 145 KCl, 1.2 MgCl2, 10 HEPES, 0.1 EGTA, pH 7.38 (adjusted with KOH).” left out\nas §4"}},
  "note": "Read-outs that look alike come from different tables or passages of the source.",
  "data": [
    {"smiles": "O=c1c(-c2ccc(O)cc2)coc2c([C@@H]3O[C@H](CO)[C@@H](O)[C@H](O)[C@H]3O)c(O)ccc12", "note": "[Puerarin, 8-c-glucoside of daidzein]", "values": [
      {"measurement": "IC50", "setting": "[1]; read-out: IC50, inhibition of IKs at the peak currents", "result": 55.6, "unit": "µM"},
      {"measurement": "IC50", "setting": "[1]; read-out: IC50, inhibition of IKs at the tail currents", "result": 59.8, "unit": "µM"},
      {"measurement": "Hill coefficient, inhibition of IKs", "setting": "[1]; non-linear Hill fit", "result": 0.989},
      {"measurement": "IKs-tail current density", "setting": "[1]; puerarin 10 μM", "result": "17.8 ± 1.5", "unit": "pA/pF"},
      {"measurement": "IKs current density", "setting": "[1]; puerarin 10 μM", "result": "25.6 ± 2.4", "unit": "pA/pF"},
      {"measurement": "IKs-tail current density", "setting": "[1]; puerarin 100 μM", "result": "9.7 ± 1.1", "unit": "pA/pF"},
      {"measurement": "IKs current density", "setting": "[1]; puerarin 100 μM", "result": "15.7 ± 1.9", "unit": "pA/pF"},
      {"measurement": "IKs-tail current density", "setting": "[1]; puerarin 1 mM", "result": "6.4 ± 1.2", "unit": "pA/pF"},
      {"measurement": "IKs current density", "setting": "[1]; puerarin 1 mM", "result": "6.0 ± 1.3", "unit": "pA/pF"},
      {"measurement": "IKs-tail current density", "setting": "[1]; puerarin 10 mM", "result": "5.2 ± 1.3", "unit": "pA/pF"},
      {"measurement": "IKs current density", "setting": "[1]; puerarin 10 mM", "result": "5.4 ± 1.7", "unit": "pA/pF"},
      {"measurement": "IC50", "setting": "Kv7.1 [2]; read-out: IC50, inhibition of Kv7.1 at the peak currents", "result": 36, "unit": "µM"},
      {"measurement": "IC50", "setting": "Kv7.1 [2]; read-out: IC50, inhibition of Kv7.1 at the tail currents", "result": 39.8, "unit": "µM"},
      {"measurement": "Hill coefficient, inhibition of Kv7.1", "setting": "Kv7.1 [2]; non-linear Hill fit", "result": 0.997},
      {"measurement": "Kv7.1-tail current density", "setting": "Kv7.1 [2]; puerarin 10 μM", "result": "8.8 ± 0.7", "unit": "pA/pF"},
      {"measurement": "Kv7.1 current density", "setting": "Kv7.1 [2]; puerarin 10 μM", "result": "19.1 ± 1.0", "unit": "pA/pF"},
      {"measurement": "effect on Kv7.1 current activated by isoproterenol, forskolin or 8-Br-cAMP", "setting": "Kv7.1 [2]; puerarin 100 μM", "result": "antagonized such activation effect"},
      {"measurement": "Kv7.1-tail current density", "setting": "Kv7.1 [2]; puerarin 100 μM", "result": "3.8 ± 0.6", "unit": "pA/pF"},
      {"measurement": "Kv7.1 current density", "setting": "Kv7.1 [2]; puerarin 100 μM", "result": "7.9 ± 0.8", "unit": "pA/pF"},
      {"measurement": "Kv7.1-tail current density", "setting": "Kv7.1 [2]; puerarin 1 mM", "result": "2.5 ± 0.9", "unit": "pA/pF"},
      {"measurement": "Kv7.1 current density", "setting": "Kv7.1 [2]; puerarin 1 mM", "result": "6.1 ± 0.4", "unit": "pA/pF"},
      {"measurement": "Kv7.1-tail current density", "setting": "Kv7.1 [2]; puerarin 10 mM", "result": "2.0 ± 0.5", "unit": "pA/pF"},
      {"measurement": "Kv7.1 current density", "setting": "Kv7.1 [2]; puerarin 10 mM", "result": "4.8 ± 0.8", "unit": "pA/pF"},
      {"measurement": "open probability of IKs channel", "setting": "IKs channel", "result": "reduced"},
      {"measurement": "open probability of Kv7.1 channel", "setting": "Kv7.1 [3]", "result": "significantly reduced"}
    ]}
  ]
}
